Like-named read-outs stand apart in the source and are kept apart here.
Experiments:
[1] = Toxicity by intraperitoneal administration (Irwin's test); assay type: in vivo; details: for Dose mg/kg (dose which brings about the death of one animal out of eight in Irwin's test): mouse
Text: The compounds tested have a remarkably low toxicity.
*Dose which brings about the death of one animal out of eight in Irwin's
test (S. IRWIN, Gordon Research Conference on Medicinal Chemistry, Colby
Junior College, New London, 1959).

[2] = Protection against aggressions of the hypoxic type (mortality induced by oxydipentonium chloride); assay type: in vivo, mice; details: Mus musculus, ip, 1 h, mice, intraperitoneal, one hour before the curarizer, 2/10 (28), read-out: Proportion of survivors, Animals treated; for responders at 100 µM, 100 µmol/kg: 0.1 mM/kg, control animals 3/20 (1), 1/10 (2, 18, 26), 0/10 (14, 32)
Protocol: Protection against aggressions of the hypoxic type was shown by a reduction of mortality induced by a curarizer, the action time of which is short, namely oxydipentonium chloride (Brevatonal). At the doses used, this curarizer brings about respiratory depression which, in turn, gives rise to a hypoxi-hypercapnic syndrome.
A compound capable of protecting the brain during this short period of hypoxia ensures survival. The compounds are administered to groups of 10 mice one hour before the injection of the curarizer. At the same time, a control group of 10 mice received physiological salt solution before the curarizer. This test has also been developed in our laboratories (see S. LEVIS et al., Arch.Int.Pharmacodyn.Therap.93, (1953,no. 1), 46-54).

[3] = active avoidance test (memory retention; paw withdrawal reaction threshold); assay type: in vivo, rat; details: sc, rat, subcutaneous, tested 24 hours later
Text: The pressure at which the withdrawal reaction takes place is called the reaction threshold. This threshold is expressed by the figure read on a scale graduated in cm of the apparatus used (Analgesy-meter Ugo Basile, Milan) and thus corresponds to the minimum pressure which brings about withdrawal when applied to the animal's paw.

[4] = read-out: Active dose mM/kg (minimum dose lowering the stimulus below 11 graduations; mM = millimole)
[5] = read-out: Active dose mg/kg (minimum dose lowering the stimulus below 11 graduations)

SMILES	Dose mM/kg - mouse (dose which brings about the death of one animal out of eight in Irwin's test) [1] [mM/kg]	Dose mg/kg (dose which brings about the death of one animal out of eight in Irwin's test) [1] [mg/kg]	responders at 100 µM, 100 µmol/kg [2] [%]	minimal effective dose [3, 4] [µmol/kg]	minimal effective dose [3, 5] [mg/kg]	responders at 320 µM, 320 µmol/kg ([2]; 0.32 mM/kg, control animals 1/10 (18), 0/10 (32, piracetam)) [%]
O=C(NCCCN1CCCC1=O)NCN1CCCC1=O [Compound No. 2, 1-[(2-oxo-pyrrolidino)methyl]-3-[3-(2-oxo-pyrrolidino)propyl]-urea]	> 3	> 846	60			
CC1(C)CCC(=O)N1CNC(=O)NCN1C(=O)CCC1(C)C [compound 35, 1,3bis[(5,5-dimethyl-2-oxo-pyrrolidine)methyl]-urea]	> 3	> 930		0.02	0.0062	
O=C(NCN1CCCCCC1=O)NCN1CCCC1=O [compound 32, 1-[(hexahydro-2-oxo-1H-azepin-1-yl)methyl]-3-[(2-oxo-pyrrolidino)methyl]-urea]	> 3	> 846	30			60
O=C(NCN1CCCCCCCC1=O)NCN1CCCCCCCC1=O [Compound No. 6, 1,3-bis[(octahydro-2-oxo-1H-azonin-1-yl)methyl]-urea]	> 3	1099.5		5	1.83	
O=C(NC(c1ccccc1)N1CCCC1=O)NC(c1ccccc1)N1CCCC1=O (stereo not drawn) [compound 19, 1,3-bis[alpha-(2-oxo-pyrrolidino)-benzyl]-urea]	> 3	> 1219				
O=C(NCN1CC(c2ccc(Cl)cc2)CCC1=O)NCN1CC(c2ccc(Cl)cc2)CCC1=O (stereo not shown) [compound 16, 1,3-bis[(5-p-chlorophenyl-2-oxo-piperidino)methyl]-urea]	> 3	1510.2				
CCC1(c2ccccc2)CCN(CNC(=O)NCN2CCC(CC)(c3ccccc3)C2=O)C1=O (stereo not shown) [compound 13, 1,3-bis[(3-ethyl-2-oxo-3-phenyl-pyrrolidino)methyl]-urea]	> 3	1387.5				
O=C(NCN1CCCCCCCC1=O)NCN1CCCC1=O [Compound No. 29, 1-[(octahydro-2-oxo-1H-azonin-1-yl)methyl]-3-[(2-oxo-pyrrolidino)methyl]-urea]	2	620				
O=C(NCN1CC(c2ccccc2)CC1=O)NCN1CC(c2ccccc2)CC1=O (stereo not shown) [compound 12, 1,3-bis[(2-oxo-4-phenyl-pyrrolidino)methyl]-urea]	> 3	1215				
CCC(NC(=O)NC(CC)N1CCCC1=O)N1CCCC1=O (stereo not shown) [Compound No. 10, 1,3-bis[1-(2-oxo-pyrrolidino)propyl]-urea]	> 3	> 930				
O=C(NCN1CCCCCCC1=O)NCN1CCCC1=O [compound 33, 1-[(hexahydro-2-oxo-1(2H)-azocinyl)methyl]-3-[(2-oxo-pyrrolidino)methyl]-urea]	> 3	> 888		5	1.48	
CCCCC1CCN(CNC(=O)NCN2CCC(CCCC)C2=O)C1=O (stereo not shown) [compound 30, 1,3-bis[(3-n-butyl-2-oxo-pyrrolidino)methyl]-urea]	> 3	> 10009.5				
CC1CC2(CCCCC2)C(=O)N1CNC(=O)NCN1CCCC1=O (stereo not shown) [compound 31, 1-[(3-methyl-1-oxo-azaspiro[4.5]dec-2-yl)methyl]-3-[(2-oxo-pyrrolidino)-methyl]-urea]	2	672.8				
CC(CNC(=O)NCC(C)N1CCCC1=O)N1CCCC1=O (stereo not shown) [compound 21, 1,3-bis[2-(2-oxo-pyrrolidino)propyl]-urea]	> 3	> 930		0.01	0.0031	
O=C1CCCCCN1CNC(=S)NCN1CCCCCC1=O [compound 36, 1,3-bis[(hexahydro-2-oxo-1H-azepin-1-yl)methyl]-2-thiourea]				0.2	0.065	
O=C(NCN1CCCCCCC1=O)NCN1CCCCCCC1=O [Compound No. 5, 1,3bis[(hexahydro-2-oxo-1(2H)-azocinyl)methyl]-urea]	3	1004		1	0.338	
CC1CC2(CCCCC2)C(=O)N1CNC(=O)NCN1C(=O)C2(CCCCC2)CC1C (stereo not shown) [compound 17, 1,3-bis[(3-methyl-1-oxo-2-azaspiro[4.5]dec-2-yl)methyl]-urea]	3	1255.8				
CCCCC1CCN(CNC(=S)NCN2CCC(CCCC)C2=O)C1=O (stereo not shown) [compound 27, 1,3-bis[(3-n-butyl-2-oxo-pyrrolidino)methyl]-2-thiourea]				0.01	0.0038	
C=CCC1(c2ccccc2)CCN(CNC(=O)NCN2CCC(CC=C)(c3ccccc3)C2=O)C1=O (stereo not shown) [compound 15, 1,3-bis[(3-allyl-2-oxo-3-phenyl-pyrrolidino)methyl]-urea]	> 3	1459.5		1	0.486	
O=C1CCCN1CNC(=S)NCN1CCCC1=O [compound 25, 1,3-bis[(2-oxo-pyrrolidino)methyl]-2-thiourea]	> 3	> 804		1	0.268	
O=C(NCN1CCCCC1=O)NCN1CCCCC1=O [Compound No. 3, 1,3-bis[(2-oxo-piperidino)methyl]-urea]				0.2	0.056	
O=C(NCN1C(=O)CCC1c1ccccc1)NCN1C(=O)CCC1c1ccccc1 (stereo not shown) [Compound No. 9, 1,3-bis[(2-oxo-5-phenyl-pyrrolidino)methyl]-urea]	1	406				
